Experiments:
Format in all cases: in vivo
Puccinia coronata = assay: Controlling effect on Puccinia coronata by foliage application (pot experiment); conditions: foliage spray on oat (cv. PC-38) seedlings, infected area after 1 day moist chamber and 8 days greenhouse at 20° C.
Procedure: The following Test Examples illustrate the effects of the fungicide of the present invention. (I. Controlling effects on various plant diseases by foliage application (pot experiment)) A test compound was dissolved in a small amount of N,N-dimethylformamide, and the solution was diluted to a given concentration with distilled water containing a spreader. Thus, a liquid sample to be tested was prepared. The liquid sample was sprayed to test plants, and 24 hours thereafter, pathogens were inoculated by the method described below. […] The seeds of oat (cv.: PC-38) were sown in plastic cups (each 9 cm in diameter), followed by cultivation for 2 to 3 weeks. The test compound in the form of a solution or suspension was sprayed to the seedlings. Spores of Puccinia coronata cultured on oat leaves were collected, diluted about 10-fold with talc, and sprayed to the test plants to inoculate the plants with the pathogen. After the inoculation, the plants were kept in a moist chamber at 20° C. for 1 day and then in a greenhouse at 20° C. for 8 days. The infected area on the leaf was observed, and the percent control was calculated.

Sphaerotheca fuliginea = assay: Controlling effect on Sphaerotheca fuliginea by foliage application (pot experiment); conditions: foliage spray on cucumber (cv. TSUKUBASHIROIBO) first leaves, infected area after 10 days in greenhouse at 20° C.; for pest or weed control at 500 ppm: Podosphaera fuliginea, in Cucumis sativus, foliar, 240 h, read-out: Controlling effect on Sphaerotheca fuliginea by foliage application at 500 ppm (percent control)
Method in brief: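 First leaves of cucumber seedlings, 2-3 weeks old, were sprayed with compound (DMF solution diluted in water with spreader). They were inoculated 24 h later with a Sphaerotheca fuliginea conidia spray and kept 10 days at 20° C in a greenhouse. Percent control was calculated from infected leaf area.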

[1] = tested on: Erysiphe graminis f. sp. tritici; assay: Controlling effect on Erysiphe graminis f. sp. tritici by foliage application (pot experiment); conditions: foliage spray on wheat (cv. NORIN No. 61) seedlings, infected area after 10 days in greenhouse at 20° C.; for pest or weed control at 500 ppm: Blumeria graminis, foliar, 240 h, read-out: Controlling effect on ErYsiphe graminis f. sp. tritici by foliage application at 500 ppm (percent control)
Method in brief: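 Wheat seedlings (cv. NORIN No. 61, 2-3 weeks old) sprayed with compound in DMF diluted in water with spreader, then inoculated with conidia 24 hours later. Kept in greenhouse at 20 °C for 10 days; percent control calculated from infected leaf area.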

Pyricularia oryzae = conditions: foliage spray on rice seedlings (cv. […]), number of lesions six days after the inoculation
[2] = tested on: Pseudoperonospora cubensis; assay: Controlling effect on Pseudoperonospora cubensis by foliage application (pot experiment); conditions: foliage spray on cucumber (var. TSUKUBASHIROIBO) first leaves, lesion area after 10 days in moist chamber at 20° C.
Procedure: The following Test Examples illustrate the effects of the fungicide of the present invention. (I. Controlling effects on various plant diseases by foliage application (pot experiment)) A test compound was dissolved in a small amount of N,N-dimethylformamide, and the solution was diluted to a given concentration with distilled water containing a spreader. Thus, a liquid sample to be tested was prepared. The liquid sample was sprayed to test plants, and 24 hours thereafter, pathogens were inoculated by the method described below. […] The seeds of cucumber (var.: […]) were sown in plastic cups (each 9 cm in diameter), followed by cultivation for 2 to 3 weeks. The test compound in the form of a solution or suspension was sprayed to the surface of their first leaves, and a zoosporangia suspension of Pseudoperonospora cubensis cultured on cucumber leaves was dropped on the above leaf surfaces to inoculate the test plants with the pathogen. After the inoculation, the plants were kept in a moist chamber at 20° C. for 10 days. Then, the area of the lesions around the inoculum were observed and the percent control was calculated.

SMILES	Controllng effect on Puccinia coronata by foliage application at 500 ppm (percent control) (Puccinia coronata)	Controlling effect on Sphaerotheca fuliginea by foliage application at 500 ppm (percent control) (Sphaerotheca fuliginea)	Controlling effect on ErYsiphe graminis f. sp. tritici by foliage application at 500 ppm (percent control) [1] [percent control]	Controlling effect on PYricularia orYzae by foliage application at 500 ppm (percent control) (Pyricularia oryzae)	Controlling effect on Pseudoperonospora cubensis by foliage application at 500 ppm (percent control) [2] [percent control]	pest or weed control at 500 ppm (Sphaerotheca fuliginea) [%]	pest or weed control at 500 ppm [1] [%]
CCON=C(c1ccccc1COc1ccccc1)n1cncn1 [compound 275]	90	100	90	–	–	–	–
CON=C(c1noc(C)n1)c1ccccc1COc1ccc(C)cc1 [compound 914]	97	–	–	–	–	–	–
CCc1cccc(OCc2ccccc2C(=NOC)c2nnco2)c1 [compound 716]	–	100	70	70	100	–	–
CON=C(c1ccccc1COc1ccccc1)c1nnnn1C [compound 1001]	70	–	–	–	–	–	–
CON=C(c1cc(C)no1)c1ccccc1COc1ccc(Cl)cc1C (single isomer, unassigned) [641A]	–	100	90	70	100	–	–
CON=C(c1cc(C)no1)c1ccccc1COc1cccc(C)c1 (single isomer, unassigned) [613A]	–	100	90	70	70	–	–
CON=C(c1cc(C)no1)c1ccccc1COc1ccc(C)cc1 (single isomer, unassigned) [614B]	–	97	70	70	100	–	–
CON=C(c1ccon1)c1ccccc1COc1cccc(C)c1 (mixture of isomers) [compound 313]	–	100	70	90	100	–	–
CON=C(c1ccno1)c1ccccc1COc1ccc(Cl)cc1C (single isomer, unassigned) [541B]	–	100	90	70	100	–	–
CON=C(c1ccccc1ON=C(C)c1cccc(C(F)(F)F)c1)C1NCCS1 (stereo not drawn) [Compound No. 2799, 2-[(α-methyl-3-trifluoromethylbenzylidene)aminooxy]phenyl thiazolidin-2-yl ketone O-methyloxime]	–	–	–	100	95	100	97
C=CCON=C(c1ccccc1COc1ccccc1)n1cccn1 [compound 298]	70	–	–	–	–	–	–
CON=C(c1ccccc1COc1ccccc1Cl)c1nccn1C (single isomer, unassigned) [105A]	–	100	70	97	100	–	–
CON=C(c1ccon1)c1ccccc1COc1cccc(Cl)c1 (mixture of isomers) [compound 306]	–	97	70	70	100	–	–
CON=C(c1nnn(C)n1)c1ccccc1COc1ccccc1 [compound 2001]	70	70	–	–	–	–	–
CON=C(c1cc(C)no1)c1ccccc1COc1ncc(C(F)(F)F)cc1Cl (single isomer, unassigned) [690A, 2-(3-chloro-5-trifluoromethyl-2-pyridyloxymethyl)phenyl 3-methylisoxazol-5-yl ketone O-methyloxime]	–	–	–	97	100	100	100
CON=C(c1nnco1)c1ccccc1COc1cc(Cl)ccc1Cl [compound 731]	–	100	70	70	100	–	–
CON=C(c1nnco1)c1ccccc1COc1cccc(Cl)c1 [compound 706]	–	100	90	70	100	–	–
CON=C(c1ccccc1CON=C(C)c1cccc(C(F)(F)F)c1)C1SCCN1C (stereo not drawn) [Compound No. 2839]	–	100	97	90	95	–	–
CON=C(c1ccccc1COc1cc(Cl)ccc1Cl)c1nccn1C (single isomer, unassigned) [131A]	–	100	90	90	100	–	–
CON=C(C1=NCCN1C)c1ccccc1COc1cccc(C)c1 [compound 1113]	70	–	–	–	–	–	–
CON=C(c1ccno1)c1ccccc1COc1ccccc1C (single isomer, unassigned) [512B]	–	100	97	97	100	–	–

Source: patent publication US6362212B1, “Oxime derivative and bactericide containing the same as active ingredient” (Shionogi & Company, Ltd., priority 1994, dated 2002)
